Experimental data: patent publication US8148371B2, “Adenine compound and use thereof” (Dainippon Sumitomo Pharma Co., Ltd., priority 2002, dated 2012)
Like-named read-outs stand apart in the source and are kept apart here. Marks after values point to notes of the source that are not given here.

Key:
[1] = system: cells of rat spleen; assay: cells; assay type: cell-based, SD rat; settings: 24 h, read-out: Minimum effective concentration (interferon inducing activity)
[2] = system: cells of mouse spleen; assay: cells; assay type: cell-based, C3H/HeJ mouse; settings: Mus musculus, 24 h, read-out: Minimum effective concentration (interferon inducing activity)
[3] = system: plasma esterase; settings: rat plasma, 37° C., 15 minutes
Description: The compound of the present invention is added to the serum solution, and the mixture is incubated at 37±0.5° C. for 5 minutes to 2 hours. By quantitatively analyzing at the definite interval the amount of the compound of the present invention remaining in the serum solution with HPLC (high performance liquid chromatography), etc., the constant of quenching velocity calculated and the half life is calculated.
The serum herein means the supernatant fraction obtained by excluding hemocytes and blood coagulation factor from blood by centrifugation, etc. The serum diluted with buffer, etc. can be used.
The metabolic stability of the test compound was presented by the residual amount (%) per the concentration of pre-metabolization.

[4] = Metabolic stability on liver S9 of rat; settings: 37° C.
Description: The compound of the present invention is added to liver S9 solution, and the mixture is incubated at 37±0.5° C. for 5 minutes to 2 hours. By quantitatively analyzing at the definite interval the amount of the compound of the present invention remaining in the liver S9 solution with HPLC (high performance liquid chromatography), etc., the constant of quenching velocity is calculated and the half life is calculated.
The reaction on river S9 of a rat was carried out on a 96-well plate by using a robot for screening by Tecan Company. S9 solution was prepared by adding to 10 ml of liver S9 of a rat, 20 ml of 250 mM Kpi (pH 7.4) and 20 ml of deionized water. Cofactor solution was prepared by dissolving NADPH (220 mg) in deionized water (40.5 ml) to give finally a 6 mM solution. IS (Internal Standard) solution was prepared by adding 300 μL of IS solution (1 mM DMSO solution) to 30 ml of acetonitrile solution (100 times dilution). The test compound (1 μM DMSO solution) was dissolved in an incubator at 37° C., 35 μL of it was poured into each well of a 96-well plate (24 samples/plate and then, plates (a sample plate, a 96 well-plate for dilution, deep well plates for reaction and recovering, a plate for extraction of the solid phase) and the test samples (S9 solution, Cofactor solution, IS (Internal Standard) solution, Stop solution, acetonitrile for elution) were set to the specified position in the booth of the robot. The reaction started (the concentration of the test compound was 1 μM) and the mixture was incubated at 37° C. under stirring. The solid phase was extracted and at the same time the internal standard for analysis was added. To the recovered sample (200 μL/well) was added 50 μL of acetonitrile per each well and to 2 plates of FALCON Deep well were poured 100 μL of the solution per well. By subjecting to the LC/MS analysis, the chromatogram of the test sample and the internal standard were described and the peak area was calculated. And then, the stability (residual rate after reaction) was calculated by the internal standard method.

[5] = rat liver S9, test compound 1 μM
[6] = rat liver S9, test compound 10 μM (*)

CCCCOc1nc(N)c2nc(O)n(Cc3cccc(C(=O)O)c3)c2n1 [Comparative example 1, 2-Butoxy-8-hydroxy-9-(3-carboxybenzyl)adenine, reference compound]
minimal effective concentration [1]: 0.01 µM
minimal effective concentration [2]: 0.003 µM

CCCCOc1nc(N)c2nc(O)n(Cc3cccc(CC(=O)O)c3)c2n1 [Comparative example 5, 2-Butoxy-8-hydroxy-9-(3-carboxymethylbenzyl)adenine, reference compound]
minimal effective concentration [1]: 0.01 µM
minimal effective concentration [2]: 0.1 µM

CCCCOc1nc(N)c2nc(O)n(Cc3ccc(CC(=O)SC)cc3)c2n1 [Example 74, 2-Butoxy-8-hydroxy-9-{4-(S-methylthiocarbonyl)methylbenzyl}adenine]
minimal effective concentration [1]: 0.001 µM
Residual rate ([3]; test compound 1 μM (*)): 0* %
Residual rate [4, 5]: 7%

COC(=O)OCCOc1nc(N)c2nc(O)n(Cc3ccc(C)nc3)c2n1 [Example 38, 2-{2-(Methoxycarbonyloxy)ethoxy}-8-hydroxy-9-{(6-methyl-3-pyridyl)methyl}adenine]
Residual rate ([3]; test compound 10 μM): 2%
minimal effective concentration [2]: 0.01 µM

CCCCOc1nc(N)c2nc(O)n(Cc3cccc(CC(=O)OC)c3)c2n1 [Example 19, 2-Butoxy-8-hydroxy-9-(3-methoxycarbonylmethylbenzyl)adenine]
minimal effective concentration [1]: 0.0003 µM
minimal effective concentration [2]: < 0.001 µM

Nc1nc(SCC(=O)O)nc2c1nc(O)n2Cc1ccccc1 [Comparative example 12, 9-Benzyl-8-hydroxy-2-(calboxylmethyl)thioadenine, reference compound]
minimal effective concentration [1]: 0.3 µM
minimal effective concentration [2]: 10 µM

CCCCOc1nc(N)c2nc(O)n(Cc3ccc(CC(=O)OCCO)cc3)c2n1 [Example 71, 2-Butoxy-8-hydroxy-9-{4-(2-hydroxyethoxycarbonyl)methylbenzyl}adenine]
minimal effective concentration [1]: 0.0003 µM
Residual rate ([3]; test compound 1 μM (*)): 0* %
Residual rate [4, 5]: 0%

CCCCOc1nc(N)c2nc(O)n(Cc3cccc(CC(=O)OCCF)c3)c2n1 [Example 70, 2-Butoxy-8-hydroxy-9-{3-(2-fluoroethoxycarbonyl)methylbenzyl}adenine]
minimal effective concentration [1]: 0.001 µM
Residual rate ([3]; test compound 1 μM (*)): 0* %
Residual rate [4, 5]: 16%

CCCCOc1nc(N)c2nc(O)n(Cc3ccc(CC(=O)OCCN4CCOCC4)cc3)c2n1 [Example 73, 2-Butoxy-8-hydroxy-9-{4-(2-morpholinoethoxycarbonyl)methylbenzyl}adenine]
minimal effective concentration [1]: 0.0003 µM
Residual rate ([3]; test compound 1 μM (*)): 4* %
Residual rate [4, 5]: 0%

CCCCOc1nc(N)c2nc(O)n(Cc3ccc(C(=O)O)o3)c2n1 [Comparative example 3, 2-Butoxy-8-hydroxy-9-(5-carboxyfurfuryl)adenine, reference compound]
minimal effective concentration [1]: 0.01 µM
minimal effective concentration [2]: 0.1 µM

Nc1nc(SCC(=O)N2CCCCC2)nc2c1nc(O)n2Cc1ccccc1 [Example 51, 9-Benzyl-8-hydroxy-2-(1-piperidinocarbonylmethyl)thioadenine]
minimal effective concentration [2]: 0.1 µM
Residual rate [4, 5]: 0%

Nc1nc(CC(=O)O)nc2c1nc(O)n2Cc1ccccc1 [Comparative example 8, 9-Benzyl-2-carboxymethyl-8-hydroxyadenine, reference compound]
minimal effective concentration [1]: 3 µM
minimal effective concentration [2]: 10 µM

CCCCOc1nc(N)c2nc(O)n(Cc3cccc(C(=O)OCCO)c3)c2n1 [Example 6, 2-Butoxy-8-hydroxy-9-{3-(2-hydroxyethoxycarbonyl)benzyl}adenine]
Residual rate ([3]; test compound 10 μM): 14%
minimal effective concentration [2]: < 0.001 µM

COC(=O)c1cccc(CSc2nc(N)c3nc(O)n(Cc4ccccc4)c3n2)c1 [Example 103, 9-Benzyl-8-hydroxy-2-[(3-methoxycarbonylbenzyl)thio]adenine]
minimal effective concentration [1]: 0.01 µM
Residual rate ([3]; test compound 1 μM (*)): 6* %
Residual rate [4, 5]: 7%

CCCCOc1nc(N)c2nc(O)n(Cc3cccc(C(=O)OCCN(C)C)c3)c2n1 [Example 7, 2-Butoxy-8-hydroxy-9-{3-(2-dimethylaminoethoxycarbonyl)benzyl}adenine]
Residual rate ([3]; test compound 10 μM): 1%
minimal effective concentration [2]: < 0.001 µM

CC(=O)OCCNc1nc(N)c2nc(O)n(Cc3ccc(C)nc3)c2n1 [Example 33, 2-(2-Acetoxyethylamino)-8-hydroxy-9-{(6-methyl-3-pyridyl)methyl}adenine]
minimal effective concentration [2]: 0.1 µM
Residual rate [4, 6]: 2* %

COC(=O)CCc1nc(N)c2nc(O)n(Cc3ccccc3)c2n1 [Example 61, 9-Benzyl-8-hydroxy-2-(2-methoxycarbonylethyl)adenine]
minimal effective concentration [1]: 0.003 µM
Residual rate ([3]; test compound 1 μM (*)): 0* %
Residual rate [4, 5]: 0%

CCCCOc1nc(N)c2nc(O)n(Cc3cccc(C(=O)OCC)c3)c2n1 [Example 2, 2-Butoxy-8-hydroxy-9-(3-ethoxycarbonylbenzyl)adenine]
minimal effective concentration [1]: 0.001 µM
Residual rate ([3]; test compound 10 μM): 5%
Residual rate [4, 5]: 11%

CCCCOc1nc(N)c2nc(O)n(Cc3ccc(CC(=O)OCC)cc3)c2n1 [Example 68, 2-Butoxy-8-hydroxy-9-(4-ethoxycarbonylmethylbenzyl)adenine]
minimal effective concentration [1]: 0.0003 µM
Residual rate ([3]; test compound 1 μM (*)): 0* %
Residual rate [4, 5]: 13%

CCOC(=O)CC(=O)CSc1nc(N)c2nc(O)n(Cc3ccccc3)c2n1 [Example 58, 9-Benzyl-2-(ethoxycarbonylmethylcarbonylmethyl)thio-8-hydroxyadenine]
Residual rate ([3]; test compound 10 μM): 0%
minimal effective concentration [2]: 0.1 µM

CCCCOc1nc(N)c2nc(O)n(Cc3ccc(CC(=O)O)cc3)c2n1 [Comparative example 6, 2-Butoxy-8-hydroxy-9-(4-carboxymethylbenzyl)adenine, reference compound]
minimal effective concentration [1]: 0.01 µM
minimal effective concentration [2]: 0.03 µM

CCNC(=O)CSc1nc(N)c2nc(O)n(Cc3ccccc3)c2n1 [Example 50, 9-Benzyl-2-(ethylcarbamoylmethyl)thio-8-hydroxyadenine]
minimal effective concentration [2]: 0.1 µM
Residual rate [4, 5]: 7%

COC(=O)COc1nc(N)c2nc(O)n(Cc3ccccc3)c2n1 [Example 64, 9-Benzyl-8-hydroxy-2-methoxycarbonylmethoxyadenine]
minimal effective concentration [1]: 0.003 µM
Residual rate ([3]; test compound 1 μM (*)): 0* %
Residual rate [4, 5]: 2%

CCCCCCCCOC(=O)CSc1nc(N)c2nc(O)n(Cc3ccccc3)c2n1 [Example 42, 9-Benzyl-8-hydroxy-2-(octyloxycarbonylmethyl)thioadenine]
Residual rate ([3]; test compound 10 μM): 0%
Residual rate [4, 5]: 3%

Nc1nc(SCCC(=O)O)nc2c1nc(O)n2Cc1ccccc1 [Comparative example 13, 9-Benzyl-8-hydroxy-2-(2-calboxylethyl)thioadenine, reference compound]
minimal effective concentration [1]: 0.3 µM
minimal effective concentration [2]: 10 µM

CCCCOc1nc(N)c2nc(O)n(Cc3ccc(C(=O)OC)nc3)c2n1 [Example 17, 2-Butoxy-8-hydroxy-9-{(6-methoxycarbonyl-3-pyridyl)methyl}adenine]
minimal effective concentration [1]: 0.001 µM
Residual rate ([3]; test compound 10 μM): 0%
Residual rate [4, 5]: 28%

CCCCOc1nc(N)c2[nH]c(=O)n(Cc3cccc(CC(=O)OCC)c3)c2n1 [Example 80, 2-Butoxy-9-(3-ethoxycarbonylmethylbenzyl)-8-hydroxyadenine]
minimal effective concentration [1]: 0.001 µM
Residual rate ([3]; test compound 1 μM (*)): 0* %
Residual rate [4, 5]: 0%

Nc1nc(SCC(=O)OCCF)nc2c1nc(O)n2Cc1ccccc1 [Example 46, 9-Benzyl-2-(2-fluoroethoxycarbonylmetyl)thio-8-hydroxyadenine]
Residual rate ([3]; test compound 10 μM): 0%
Residual rate [4, 5]: 0%

CCCCOc1nc(N)c2nc(O)n(Cc3ccc(N4CCCC(C(=O)OCC)C4)nc3)c2n1 (centres unmarked) [Example 25, 2-Butoxy-8-hydroxy-9-{6-(3-ethoxycarbonyl-1-piperidyl)-3-pyridylmethyl}adenine]
Residual rate ([3]; test compound 10 μM): 16%
minimal effective concentration [2]: 0.003 µM

CCCCOc1nc(N)c2nc(O)n(Cc3cccc(C(=O)OC(C)C)c3)c2n1 [Example 3, 2-Butoxy-8-hydroxy-9-(3-isopropoxycarbonylbenzyl)adenine]
Residual rate ([3]; test compound 10 μM): 20%
Residual rate [4, 5]: 19%

COC(=O)CNc1nc(N)c2nc(O)n(Cc3ccc(C)nc3)c2n1 [Example 32, 8-Hydroxy-2-methoxycarbonylmethylamino-9-{(6-methyl-3-pyridyl)methyl}adenine]
Residual rate ([3]; test compound 10 μM): 0%
minimal effective concentration [2]: 0.01 µM

Cc1ccc(Cn2c(O)nc3c(N)nc(OCCO)nc32)cn1 [Comparative example 11, 8-Hydroxy-2-(2-hydroxyethoxy)-9-{(6-methyl-3-pyridyl)methyl}adenine, reference compound]
minimal effective concentration [2]: 0.1 µM

CCOC(=O)CCCSc1nc(N)c2nc(O)n(Cc3ccccc3)c2n1 [Example 56, 9-Benzyl-2-(3-ethoxycarbonylpropyl)thio-8-hydroxyadenine]
Residual rate ([3]; test compound 10 μM): 0%
Residual rate [4, 5]: 1%

Nc1nc(SCC(=O)OCc2ccccc2)nc2c1nc(O)n2Cc1ccccc1 [Example 45, 2-(Benzyloxycarbonylmethyl)thio-9-benzyl-8-hydroxyadenine]
Residual rate ([3]; test compound 10 μM): 0%
Residual rate [4, 6]: 8* %

Nc1nc(SCC(=O)OCC(F)F)nc2c1nc(O)n2Cc1ccccc1 [Example 47, 9-Benzyl-2-(2,2-difluoroethoxycarbonylmetyl)thio-8-hydroxyadenine]
Residual rate ([3]; test compound 10 μM): 0%
Residual rate [4, 5]: 0%

Cc1ccc(Cn2c(O)nc3c(N)nc(NCCO)nc32)cn1 [Comparative example 10, 8-Hydroxy-2-(2-hydroxyethylamino)-9-{(6-methyl-3-pyridyl)methyl}adenine, reference compound]
minimal effective concentration [2]: 1 µM

CCCCOc1nc(N)c2nc(O)n(Cc3ccc(OCC(=O)OC)cc3)c2n1 [Example 22, 2-Butoxy-8-hydroxy-9-(4-methoxycarbonylmethoxybenzyl)adenine]
Residual rate ([3]; test compound 10 μM): 0%
Residual rate [4, 5]: 31%
